Experimental data as given in patent US8377883B2, “Peptide for anti-angiogenesis and use thereof” (Beijing Institute for Cancer Research, priority 2006, dated 2013).

Assays:
osteosarcoma S180 cells = test: Tumor suppression in osteosarcoma S180 cells tumor-bearing mouse model (Example 4); assay type: in vivo, mice of Kunming strain; settings: 50 m/1000 PBS/injection, angulus oculi medialis vein daily, 7 times; vs PBS control, P<0.05
Protocol: To confirm the biological effects of FpAT on the growth of mice deriving tumor in mice in vivo, a tumor suppression experiment was carried out in this example using liver cancer H22 cells tumor-bearing mouse model of mice of Kunming strain and osteosarcoma S180 cells tumor-bearing mouse model of mice of Kunming strain. Forty 5-week old mice of Kunming strain purchased from Animal Center Of Chinese Academy Of Medical Sciences were inoculated subcutaneously in forelimb with mouse liver cancer H22 cells (National Institute for the Control of Pharmaceutical and Biological Products) (5×10^6/100 μl/mouse) or osteosarcoma S180 cells (National Institute for the Control of Pharmaceutical and Biological Products) (5×10^6/100 μl/mouse). On the next day after inoculation, each kind of inoculated cells were divided into 2 groups randomly with 10 mice per group. FpAT ([…]) or vehicle (the solvent for peptide) control (PBS:100 μl/injection) were injected in angulus oculi medialis vein daily, 7 times in total. The mice were sacrificed by dislocating the neck on the next day after administration was stopped, and the tumors were taken and weighed for a statistical analysis.

[1] = test system: human umbilical vein endothelial cells (HUVECs); test: MTT proliferation of HUVECs; assay type: cell-based; settings: 25 μg/ml PBS, MTT at 24, 48, 72, 96 hours
Protocol: In order to further investigate the effects of FpAT on the proliferation of various vascular endothelial cells, a cell proliferation suppression experiment was carried out using MTT method in this example.
Human umbilical cord samples (obtained from Beijing Obstetrics & Gynecology Hospital) was digested with 0.1% collagenase I (available from GIBCO BRL company), followed by a centrifugation (1000 rpm, 10 minutes) to collect human umbilical vein endothelial cells (HUVECs). After suspended in 20% FCS/RPMI1640, the cells were transferred into plastic bottles for culture in CO2 incubator (37° C., 5% CO2). Twelve hours later, unattached cells were discarded by changing medium, and then the remaining cells were cultured conventionally with the medium changed every 3 days. The cultured HUVECs were digested with 0.04% trypsin-EDTA, and inoculated into 96-well plate at 2×10^3 cells/well. After 24 hours of culture, the vehicle (PBS) and FpAT (25 μg/ml PBS) were added separately, with 4 parallel wells per group. […] After mixed well, OD value (measured at a wavelength of 570 nm) of each well was measured in a microplate reader, and the cell suppression rates were calculated according to the following formula: cell suppression rate=(mean OD value of blank control group-mean OD value of treated group)/mean OD value of blank control group×100%.

[2] = test system: human umbilical vein endothelial cells (HUVECs); test: Apoptosis of HUVECs (flow cytometry, DNA Ladder, RT-PCR, Western blotting); assay type: cell-based; settings: 50 μg/ml PBS, 96 hours
Protocol: Human umbilical cord samples (obtained from Beijing Obstetrics & Gynecology Hospital) was digested with 0.1% collagenase I (available from GIBCO BRL company), followed by a centrifugation (1000 rpm, 10 minutes) to collect human umbilical vein endothelial cells (HUVECs). After suspended in 20% FCS/RPMI1640, the cells were transferred into plastic bottles for culture in CO2 incubator (37° C., 5% CO2). Twelve hours later, unattached cells were discarded by changing medium, and then the remaining cells were cultured conventionally with the medium changed every 3 days. The vehicle (PBS) and FpAT (50 μg/ml PBS) were added separately, and the cells were collected at 96 hours. Flow Cytometry: the cells were digested with 0.04% trypsin-EDTA, collected and washed 3 times with PBS; the cells were suspended by adding 200 μl PBS and aspirated gently to avoid formation of cell mass. 800 μl cold absolute alcohol was added, and then the cells was fixed at 4° C. overnight; and after a centrifugation at 1000×g for 5 min at 4° C., and the supernatant were discarded. The cells were washed twice with PBS, re-suspended with 200 μl PBS containing RNaseA at a concentration of 1 mg/ml, and incubated at 37° C. for 30 minutes. PI staining solution (final concentration of 50 μg/ml) was added, and the well mixed cells were subjected to a reaction at 4° C. for 30 minutes in the dark. The detection was performed on a flow cytometer. DNA Ladder analysis: the cells differently treated (PBS and FpAT) were collected by a centrifugation at 1000 rpm for 5 minutes, and the cells were lysed with lysis solution (10 mM Tris-HCl, 5 mM EDTA, 1% Triton-X 100, 10 mM NaCl, 100 μg/ml protease K), and aspirated repeatedly to cut viscous genomic DNA, which theoretically generates DNA fragments in a uniform size of 20 to 30 kb; phenols and chloroform were used to extract, and after precipitated with absolute ethanol, the total DNA were dissolved in TE or water, and treated with Rnase A at 37° C. for 1˜2 hours. Five microliters was taken for an electrophoresis on 1.8% agarose gel. […]

What does the source list for “H2N-Asp-Ser-Gly-Glu-Gly-Asp-Phe-Leu-Ala-Glu-Gly-Gly-Gly-Val-Arg-COOH (H-DSGEGDFLAEGGGVR-OH; listed as Homo sapiens) [FpAT, fibrinopeptide A truncated, carboxyl terminal 15 amino acids of fibrinopeptide A]”?
growth of osteosarcoma S180 cells in vivo (tumor mass) (osteosarcoma S180 cells): could suppressed the growths; suppressing rate of HUVEC proliferation [1]: 40.1%; DNA Ladder in total DNA of HUVECs [2]: presence of plenty of DNA Ladder; apoptosis of HUVECs by flow cytometry ([2]; PI staining): presence of an evidence apoptosis peak; effect on cell cycle of HUVECs ([2]; flow cytometry): no remarkable effects on cell cycle
